From ChEMBL document CHEMBL1201862, “PubChem BioAssay data set” (2004)
The source made the active and inactive calls.

What was measured:
[1] = target: T1, Carboxy-terminal domain RNA polymerase II polypeptide A small phosphatase 1 (Homo sapiens, UniProt Q9GZU7); test: CTDSP1 inhibitors, concentration-response, biochemical, absorbance readout, ultra-high-throughput screen actives (AID 540297); assay type: functional
T1 sequence (Q9GZU7 whole entry): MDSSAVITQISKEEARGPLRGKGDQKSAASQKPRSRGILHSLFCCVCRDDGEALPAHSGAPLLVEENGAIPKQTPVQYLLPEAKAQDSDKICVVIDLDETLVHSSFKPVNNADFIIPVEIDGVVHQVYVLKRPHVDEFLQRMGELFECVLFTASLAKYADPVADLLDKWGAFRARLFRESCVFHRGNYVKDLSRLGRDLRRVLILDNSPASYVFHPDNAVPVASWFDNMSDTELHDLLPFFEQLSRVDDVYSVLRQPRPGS

[2] = target: T2, Exodeoxyribonuclease V (Escherichia coli (strain K12), UniProt P04993+P07648+P08394); test: RecBCD inhibition via phage-restricted bacterial growth – absorbance, V66 E. coli, mutant T4 phage, counter-screen for AddAB inhibitor project, dose response (AID 492957); assay type: functional, cell-based, Escherichia coli str. K-12 substr. MG1655
T2 sequence (P04993 whole entry): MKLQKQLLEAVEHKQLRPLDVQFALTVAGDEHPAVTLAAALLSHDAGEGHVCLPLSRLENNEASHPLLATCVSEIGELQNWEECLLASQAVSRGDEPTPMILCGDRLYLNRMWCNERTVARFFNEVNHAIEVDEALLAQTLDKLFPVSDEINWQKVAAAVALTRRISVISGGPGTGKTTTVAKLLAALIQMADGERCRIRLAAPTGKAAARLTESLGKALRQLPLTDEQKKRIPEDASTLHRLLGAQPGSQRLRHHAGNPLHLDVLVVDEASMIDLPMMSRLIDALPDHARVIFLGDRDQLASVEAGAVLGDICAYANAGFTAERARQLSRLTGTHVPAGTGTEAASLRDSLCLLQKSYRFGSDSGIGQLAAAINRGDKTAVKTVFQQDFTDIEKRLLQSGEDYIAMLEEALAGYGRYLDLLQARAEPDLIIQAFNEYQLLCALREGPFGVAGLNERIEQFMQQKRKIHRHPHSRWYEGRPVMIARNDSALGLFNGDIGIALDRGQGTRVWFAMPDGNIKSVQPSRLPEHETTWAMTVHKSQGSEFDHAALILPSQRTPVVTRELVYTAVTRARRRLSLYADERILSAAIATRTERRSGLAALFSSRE
T2 sequence (P07648 whole entry): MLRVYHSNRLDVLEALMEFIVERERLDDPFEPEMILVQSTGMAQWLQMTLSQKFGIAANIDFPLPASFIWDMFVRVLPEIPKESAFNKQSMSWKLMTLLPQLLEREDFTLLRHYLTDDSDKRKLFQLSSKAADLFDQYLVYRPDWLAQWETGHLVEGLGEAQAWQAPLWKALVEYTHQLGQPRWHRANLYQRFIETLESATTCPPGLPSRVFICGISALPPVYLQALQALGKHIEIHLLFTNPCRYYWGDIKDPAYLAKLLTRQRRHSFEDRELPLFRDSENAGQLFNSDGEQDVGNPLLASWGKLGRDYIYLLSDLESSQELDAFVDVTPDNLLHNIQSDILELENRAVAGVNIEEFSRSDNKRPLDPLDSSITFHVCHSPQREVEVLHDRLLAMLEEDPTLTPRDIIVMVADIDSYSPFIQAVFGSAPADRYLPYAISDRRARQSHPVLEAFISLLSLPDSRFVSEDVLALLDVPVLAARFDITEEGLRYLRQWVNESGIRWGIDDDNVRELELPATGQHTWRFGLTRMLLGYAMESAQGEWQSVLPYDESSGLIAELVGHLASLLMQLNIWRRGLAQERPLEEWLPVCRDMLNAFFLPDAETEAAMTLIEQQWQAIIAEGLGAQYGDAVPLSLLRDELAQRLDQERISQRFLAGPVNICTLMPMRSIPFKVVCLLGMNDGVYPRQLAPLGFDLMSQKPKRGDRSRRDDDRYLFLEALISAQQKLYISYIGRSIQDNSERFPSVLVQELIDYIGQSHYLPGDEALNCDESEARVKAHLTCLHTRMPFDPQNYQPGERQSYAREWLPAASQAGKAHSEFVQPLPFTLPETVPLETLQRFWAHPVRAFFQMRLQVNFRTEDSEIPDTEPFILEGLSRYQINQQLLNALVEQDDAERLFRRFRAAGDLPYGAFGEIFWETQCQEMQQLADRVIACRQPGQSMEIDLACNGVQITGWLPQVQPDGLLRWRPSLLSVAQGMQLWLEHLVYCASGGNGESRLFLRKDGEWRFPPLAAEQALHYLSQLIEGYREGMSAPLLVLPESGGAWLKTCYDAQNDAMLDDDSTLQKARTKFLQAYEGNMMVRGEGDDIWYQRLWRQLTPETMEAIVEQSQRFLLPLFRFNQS
T2 sequence (P08394 whole entry): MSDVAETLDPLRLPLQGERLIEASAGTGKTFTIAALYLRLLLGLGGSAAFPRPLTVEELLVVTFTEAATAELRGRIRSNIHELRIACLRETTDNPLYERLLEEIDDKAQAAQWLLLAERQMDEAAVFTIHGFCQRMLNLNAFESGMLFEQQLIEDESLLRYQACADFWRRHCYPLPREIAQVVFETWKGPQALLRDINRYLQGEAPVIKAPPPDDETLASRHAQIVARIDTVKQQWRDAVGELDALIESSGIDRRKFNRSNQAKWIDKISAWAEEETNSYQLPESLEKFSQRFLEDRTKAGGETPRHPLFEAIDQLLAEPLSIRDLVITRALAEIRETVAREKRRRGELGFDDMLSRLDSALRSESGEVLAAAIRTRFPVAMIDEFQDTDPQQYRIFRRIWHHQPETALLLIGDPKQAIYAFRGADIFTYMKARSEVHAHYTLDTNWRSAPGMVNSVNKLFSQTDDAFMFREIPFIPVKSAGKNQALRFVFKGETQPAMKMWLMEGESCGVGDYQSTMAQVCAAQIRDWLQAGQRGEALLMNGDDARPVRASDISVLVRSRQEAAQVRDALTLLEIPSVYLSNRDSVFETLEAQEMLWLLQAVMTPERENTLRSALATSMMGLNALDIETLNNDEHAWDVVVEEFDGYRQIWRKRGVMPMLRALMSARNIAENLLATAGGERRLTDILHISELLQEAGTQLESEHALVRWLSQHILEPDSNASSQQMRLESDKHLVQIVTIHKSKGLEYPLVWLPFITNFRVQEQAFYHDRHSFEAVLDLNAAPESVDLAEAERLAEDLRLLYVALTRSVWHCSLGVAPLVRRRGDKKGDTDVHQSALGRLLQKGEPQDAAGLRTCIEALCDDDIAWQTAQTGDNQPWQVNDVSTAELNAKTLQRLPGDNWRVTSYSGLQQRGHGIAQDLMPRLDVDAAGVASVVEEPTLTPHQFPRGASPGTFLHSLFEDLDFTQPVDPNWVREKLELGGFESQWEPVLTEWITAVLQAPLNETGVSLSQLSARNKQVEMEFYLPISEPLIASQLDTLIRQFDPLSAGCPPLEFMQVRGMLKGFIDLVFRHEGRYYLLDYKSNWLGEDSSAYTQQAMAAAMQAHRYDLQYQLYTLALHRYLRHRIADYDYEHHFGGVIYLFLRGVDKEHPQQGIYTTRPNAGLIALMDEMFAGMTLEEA

[3] = Counterscreen for AddAB inhibitors: absorbance-based bacterial cell-based high throughput dose response assay for inhibitors of bacterial viability. [Related pubchem assays (depositor defined):AID435030, AID449728, AID449731, AID488942, AID488955, AID488956]; assay type: functional
[4] = target: DNA dC->dU-editing enzyme APOBEC-3A (Homo sapiens, UniProt P31941); test: Dose Response confirmation of small molecule APOBEC3A DNA Deaminase Inhibitors via a fluorescence-based single-stranded DNA deaminase assay. [Related pubchem assays (depositor defined):AID493011, AID493024]; assay type: functional
[5] = target: DNA dC->dU-editing enzyme APOBEC-3G (Homo sapiens, UniProt Q9HC16); assay type: functional;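 note: Dose-response counterscreen measuring inhibition of APOBEC3G DNA deaminase activity, run while confirming APOBEC3A inhibitors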
[6] = microbe, parasite or virus in culture; assay type: functional; details: Mycobacterium tuberculosis
[7] = target: T3, Short transient receptor potential channel 4 (Mus musculus, UniProt Q9QUQ5); test: calcium entry via TRPC4 opening agents – cell-based, HEK293 TRPC4/mu-opioid, Fluo-4 calcium, dose response (AID 434937); assay type: functional
T3 sequence (Q9QUQ5 whole entry): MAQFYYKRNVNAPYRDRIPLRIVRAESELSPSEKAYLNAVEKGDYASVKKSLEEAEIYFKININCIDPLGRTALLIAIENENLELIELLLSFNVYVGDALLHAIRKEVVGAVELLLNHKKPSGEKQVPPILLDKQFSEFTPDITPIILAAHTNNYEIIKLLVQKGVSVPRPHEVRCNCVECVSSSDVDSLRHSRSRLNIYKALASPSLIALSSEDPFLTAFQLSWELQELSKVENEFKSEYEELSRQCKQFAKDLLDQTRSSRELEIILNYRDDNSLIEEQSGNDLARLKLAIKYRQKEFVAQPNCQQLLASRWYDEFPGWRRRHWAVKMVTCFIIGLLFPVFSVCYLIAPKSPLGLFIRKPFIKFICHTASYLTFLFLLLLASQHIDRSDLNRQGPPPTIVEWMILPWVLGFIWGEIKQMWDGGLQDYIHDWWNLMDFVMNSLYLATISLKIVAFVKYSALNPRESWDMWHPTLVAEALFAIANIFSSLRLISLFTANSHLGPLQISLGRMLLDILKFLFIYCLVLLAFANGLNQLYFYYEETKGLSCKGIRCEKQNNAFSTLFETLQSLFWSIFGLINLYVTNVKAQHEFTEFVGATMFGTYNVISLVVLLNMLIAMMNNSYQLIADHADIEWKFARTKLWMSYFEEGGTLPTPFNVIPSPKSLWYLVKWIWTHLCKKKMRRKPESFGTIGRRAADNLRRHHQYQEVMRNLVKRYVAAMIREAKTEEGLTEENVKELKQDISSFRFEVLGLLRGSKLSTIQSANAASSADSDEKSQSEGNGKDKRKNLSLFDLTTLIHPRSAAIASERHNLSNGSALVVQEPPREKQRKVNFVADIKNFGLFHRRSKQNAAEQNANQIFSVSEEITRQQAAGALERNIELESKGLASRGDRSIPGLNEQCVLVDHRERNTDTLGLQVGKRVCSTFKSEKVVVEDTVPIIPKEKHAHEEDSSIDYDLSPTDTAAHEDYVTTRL

[8] = target: Heat shock protein HSP 90-alpha (Homo sapiens, UniProt P07900); assay type: functional, organism-based
[9] = target: T3, Short transient receptor potential channel 4; test: block of DAMGO-driven TRPC4 calcium entry – cell-based, HEK293 TRPC4/mu-opioid, Fluo-4 calcium, dose response (AID 434942); assay type: functional;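 note: potency of inhibitors blocking the TRPC4 calcium response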
[10] = intracellular Trypanosoma cruzi inhibitors in host cells – cell-based, plate reader, cherry-pick samples, set 3, dose response (AID 651818); assay type: functional;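 note: compounds incubated with infected cells for about four days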

Chain of DNA dC->dU-editing enzyme APOBEC-3A (P31941 whole entry): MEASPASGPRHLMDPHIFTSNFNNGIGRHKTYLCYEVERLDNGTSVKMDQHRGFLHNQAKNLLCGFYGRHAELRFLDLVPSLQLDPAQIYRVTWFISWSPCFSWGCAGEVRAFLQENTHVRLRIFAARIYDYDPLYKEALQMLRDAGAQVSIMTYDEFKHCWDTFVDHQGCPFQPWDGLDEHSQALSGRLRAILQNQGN
Chain of DNA dC->dU-editing enzyme APOBEC-3G (Q9HC16 whole entry): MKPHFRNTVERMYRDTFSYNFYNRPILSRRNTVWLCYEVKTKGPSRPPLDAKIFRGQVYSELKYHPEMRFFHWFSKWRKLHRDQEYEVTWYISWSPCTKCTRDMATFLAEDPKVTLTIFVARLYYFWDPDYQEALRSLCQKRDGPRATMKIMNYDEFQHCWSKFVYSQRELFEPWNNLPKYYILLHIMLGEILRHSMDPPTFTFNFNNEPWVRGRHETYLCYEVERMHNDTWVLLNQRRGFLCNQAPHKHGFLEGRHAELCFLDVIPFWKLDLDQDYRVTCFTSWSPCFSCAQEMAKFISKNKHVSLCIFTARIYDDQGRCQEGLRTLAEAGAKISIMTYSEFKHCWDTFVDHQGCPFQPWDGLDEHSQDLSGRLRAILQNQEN

In the case of `COC(=O)Cn1c(=O)c2c(n(Cc3ccccc3)c1=O)=N/C(=C/c1ccc(Br)cc1)C=2O`, the IC50 [1] is reported as 5.15 µM (active).
For `COc1ccc(NC(=O)CSc2nnc(-c3ccc(F)cc3)o2)cn1`, the IC50 [2] was > 119 µM (inactive) and the IC50 [3] was > 119 µM (inactive).
In the case of `CCCCn1nc(NC(=O)COC)c2cc3ccc(C)cc3nc21`, the IC50 [4] is reported as 3.49 µM (active) and the IC50 [5] is reported as 5 µM (active).
In the case of `O=C(Nc1nc2c(s1)CCCC2)C1CCCN1C(=O)c1cccs1` (stereo unspecified), the IC50 [4] is reported as 10 µM (active) and the IC50 [5] is reported as 15.8 µM (active).
With `CCC(C)NC(=O)c1cn(CC)c2cc(N3CCN(C(=O)c4ccco4)CC3)c(F)cc2c1=O` (stereo unspecified) the CC50 [6] was > 40 µM (active), the IC50 [2] was 89.9 µM (inactive) and the IC50 [3] was 22 µM (inactive).
In the case of `CCOc1ccccc1OCC(=O)Nc1cc(S(=O)(=O)N2CCCCC2)ccc1N1CCN(CC)CC1`, the IC50 [4] is reported as 5.85 µM (active), the EC50 [7] is reported as 4.22 µM (active) and the IC50 [5] is reported as 6.44 µM (active).
For `COc1cc(OC)c(CN2CCC(Cc3ccccc3)CC2)cc1Br`, the EC50 [7] was 2.66 µM (active).
For `Cc1cc(Cl)ccc1N=C(S)NCc1ccccc1Cl`, the IC50 [2] was > 119 µM (inactive) and the IC50 [3] was > 119 µM (inactive).
With `Cc1ccc(C)c(NC(=O)CSc2sc3c(O)cc(=O)[nH]c3c2C#N)c1` the IC50 [1] was 6.09 µM (active).
With `O=C(O)c1cn(-c2ccc(N3CCCC3)c(F)c2)c2c(F)c(F)c(F)cc2c1=O` the IC50 [2] was > 119 µM (inactive), the IC50 [3] was 64.9 µM (inactive) and the AC50 [8] was 4.37 µM (active).
For `CN(C)C(CNC(=O)C1CCN(S(=O)(=O)c2cccc(C(F)(F)F)c2)CC1)c1ccccc1` (stereo unspecified), the EC50 [9] was 0.421 µM (active) and the EC50 [7] was 0.376 µM (active).
In the case of `Cc1ccc(C)c(OCCC(=O)OCC(=O)N2c3ccccc3NC(=O)C2(C)C)c1`, the IC50 [4] is reported as 11 µM (active) and the IC50 [5] is reported as 10.4 µM (active).
With `C[C@@H]1CCCCO[C@H](CN(C)Cc2ccc(Cl)c(Cl)c2)[C@@H](C)CN([C@H](C)CO)C(=O)c2cc(NS(=O)(=O)c3ccc(F)cc3)ccc2O1` the AC50 [10] was 4.79 µM (active).
In the case of `COc1ccc(S(=O)(=O)N(C)C[C@@H]2Oc3c(NS(=O)(=O)c4ccccc4)cccc3C(=O)N([C@@H](C)CO)C[C@@H]2C)cc1`, the AC50 [10] is reported as 12.9 µM (active).
In the case of `C[C@@H]1CN([C@H](C)CO)C(=O)Cc2cc(NC(=O)Nc3cccc4ccccc34)ccc2O[C@@H]1CN(C)Cc1ccc(Oc2ccccc2)cc1`, the AC50 [10] is reported as 2.15 µM (active).
For `C[C@H]1CN([C@@H](C)CO)C(=O)c2cccc(NC(=O)c3nc4ccccc4s3)c2O[C@H]1CN(C)Cc1ccc(C(=O)Nc2ccccc2N)cc1`, the AC50 [10] was 2.97 µM (active).
With `O=C(COc1cccc([N+](=O)[O-])c1)N/N=C/c1ccco1` the IC50 [1] was 13.9 µM (active).
For `Cc1cc(NS(=O)(=O)c2ccc(N)cc2)no1` [SULFAMETHOXAZOLE], the IC50 [2] was > 119 µM (inactive) and the IC50 [3] was 29.2 µM (inactive).
